We go through twelve molecules from patent publication US20040176467A1, “Method of preventing or reducing the occurrence of symptoms of psychosis” (priority 2004, published 2004).

For one test, the target named is D2 receptors (Homo sapiens, UniProt P14416). Nature of the test: biochemical. The settings on record: read-out: occupancy for D2.
Test [1] has as its system D3 knockout and wild type mice. To be noted: habituated animals; cited from earlier work.
Test [2] concerns neurons in substantia nigra (SN), ventral tegmentum (VTA), and nucleus accumbens (NA). To be noted: cited from earlier work.
In test [3] the test system is locomotor sensitization to amphetamine. Description: locomotor sensitization to amphetamine. Type of test: in vivo.
Another test relates to rat locomotion. The settings on record: cited from earlier work; for effect on locomotion at higher doses: significant D2 receptor occupancy or activation; for effect on locomotion at low doses: devoid of significant D2 receptor occupancy; for effect on rat locomotion: D3 antagonists.
The subject of a further test is behavioral sensitization. To be noted: later challenge; cited from earlier work.
Test [4] concerns the target D3 dopamine receptor (D3/D2) (Homo sapiens, UniProt P35462). The settings on record: cited from earlier work.
The subject of the next test is D2 receptor. To be noted: dose that inhibits sensitization; cited from earlier work.
Another test concerns schizophrenia patients. The settings on record: cited from earlier work.
Test [5] concerns stereotyped behaviors induced by apomorphine and dizocilipine. To be noted: preclinical models of antipsychotic drug efficacy; cited from earlier work.

Structures are written as SMILES.

Chain of D3 dopamine receptor (D3/D2) (P35462 whole entry): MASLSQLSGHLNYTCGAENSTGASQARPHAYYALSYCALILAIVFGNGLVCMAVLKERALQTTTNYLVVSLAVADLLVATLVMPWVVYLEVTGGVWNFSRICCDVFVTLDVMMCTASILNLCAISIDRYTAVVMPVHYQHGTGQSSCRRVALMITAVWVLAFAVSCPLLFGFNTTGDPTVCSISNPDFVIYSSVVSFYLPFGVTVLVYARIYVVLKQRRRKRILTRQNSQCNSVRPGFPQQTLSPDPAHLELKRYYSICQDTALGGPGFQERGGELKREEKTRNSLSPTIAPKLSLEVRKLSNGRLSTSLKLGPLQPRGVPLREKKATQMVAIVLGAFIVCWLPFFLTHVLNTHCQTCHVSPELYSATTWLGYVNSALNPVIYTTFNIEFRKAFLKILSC
Chain of D2 receptors (P14416 whole entry): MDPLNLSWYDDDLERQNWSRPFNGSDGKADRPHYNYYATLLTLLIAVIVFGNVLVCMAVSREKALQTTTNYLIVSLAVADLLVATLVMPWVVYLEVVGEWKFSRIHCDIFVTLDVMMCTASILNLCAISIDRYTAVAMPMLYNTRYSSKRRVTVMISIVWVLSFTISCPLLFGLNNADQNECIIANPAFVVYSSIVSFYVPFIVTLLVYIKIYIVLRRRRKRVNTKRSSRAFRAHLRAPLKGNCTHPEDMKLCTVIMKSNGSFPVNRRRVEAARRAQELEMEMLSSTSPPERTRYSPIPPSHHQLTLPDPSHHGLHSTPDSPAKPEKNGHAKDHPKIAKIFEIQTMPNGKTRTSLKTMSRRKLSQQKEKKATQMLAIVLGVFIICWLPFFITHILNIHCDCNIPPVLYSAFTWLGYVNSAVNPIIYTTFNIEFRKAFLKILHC

As to `NCCc1ccc(O)c(O)c1` [dopamine], at D2 receptors, the receptor occupancy at 0.75 µM was determined as 27%.

Take `CCCN(CCC)C1CCc2ccc(O)cc2C1` (stereo not shown) [7-OH-DPAT, 7-hydroxy-N,N-di-n-propyl-2-aminotetralin]: in test [1], the “difference in hypolocomotor behavioral response between D3 knockout and wild type mice” value is listed as “Neither laboratory found a significant difference”. Further, the “effect on neuronal firing rate” value in test [2] is given as “inhibits neuronal firing rate”. Besides, the “behavioral response to the D3 agonist after a sensitizing regimen of amphetamine” value in test [3] (following a sensitizing regimen of amphetamine) was “decreased behavioral response”. In the test on rat locomotion, the “effect on locomotion at higher doses” value is on record as “stimulation of locomotion” and the “effect on locomotion at low doses” value was “inhibition of spontaneous locomotion”. Besides, in the test with rat locomotion (micro-injection into rat nucleus accumbens, also systemic administration in mice), the “effect on locomotion after micro-injection” value is reported as “inhibition of locomotion”.

With `O=C(CCCN1CCC(O)(c2ccc(Cl)cc2)CC1)c1ccc(F)cc1` [haloperidol], the “sensitization after repetitive treatment” value in the test on behavioral sensitization is listed as “results in sensitization to later challenge by cocaine, amphetamine, or the dopamine agonist apomorphine”.

As for `CCN1CCCC1CNC(=O)c1cc(S(N)(=O)=O)ccc1OC` (stereo not shown) [sulpiride], in test [4], the D2/D3 affinity ratio is 2. The “sensitization after repetitive treatment” value in the test on behavioral sensitization is listed as “results in sensitization to cocaine”.

For `CCCCN1CCCC1CNC(=O)c1cc(C#N)c2ccccc2c1OC` (stereo not shown) [nafadotride], the “D2 receptor occupancy at the dose used” value in the test with D2 receptor is recorded as “devoid of appreciable D2 receptor occupancy”. The “effect on locomotor sensitization to amphetamine” value in test [3] (dose devoid of appreciable D2 receptor occupancy) was “inhibition of locomotor sensitization to amphetamine”. The “preference (selectivity) for D3/D2” value in test [4] is listed as 10 fold. For the same molecule, in the test on rat locomotion, the “effect on rat locomotion” value was “stimulate rat locomotion”.

As to `CCCN(CCC)[C@@H]1CCc2c(OC)cccc2[C@@H]1C` [(+)-UH 232], the “effect on rat locomotion” value in the test with rat locomotion was “stimulate rat locomotion”. Moreover, the “effect on psychotic symptoms” value in the test with schizophrenia patients is “further worsened positive psychotic symptoms”.

For the molecule `N#Cc1ccc2c(c1)[C@H]1CN(CCCCNC(=O)c3ccc(-c4ccccc4)cc3)C[C@@H]1CO2` [S33084], the “preference (selectivity) for D3/D2” value in test [4] is listed as 100 fold.

On to `CCCN1CCO[C@@H]2c3cc(O)ccc3OC[C@H]21` [PD 128907], for which the “difference in hypolocomotor behavioral response between D3 knockout and wild type mice” value in test [1] was “Neither laboratory found a significant difference”. Besides, in the test with rat locomotion, the “effect on locomotion at higher doses” value is reported as “stimulation of locomotion” and the “effect on locomotion at low doses” value is given as “inhibition of spontaneous locomotion”. The “effect on stereotyped behaviors induced by apomorphine and dizocilipine” value in [5] is reported as “effectively inhibits”.

Regarding `CCCN1CCCC(c2cccc(O)c2)C1` (single isomer, unassigned; (-)) [(−)-3PPP, (−)-3-(3-hydroxyphenyl)-N-n-propylpiperidine], the “effect on psychotic symptoms” value with schizophrenia patients is given as “improved psychotic symptoms in schizophrenia patients for up to one week”.

Turning to `CCCN(CCC)C1Cc2cc(OC)c(OC)cc2C1` [U99194A], the “effect on rat locomotion” value with rat locomotion is on record as “stimulate rat locomotion”.

Turning to `CCCN[C@@H]1CCc2c(OC)cccc2[C@@H]1C` [(+)-AJ 76], the “effect on rat locomotion” value in the test with rat locomotion is given as “stimulate rat locomotion”.

On to `O=C(NCCCCN1CCN(c2cccc(Cl)c2Cl)CC1)c1ccc2c(c1)Cc1ccccc1-2` [NGB 2904], for which, in [4], the “preference (selectivity) for D3/D2” value is 155 fold.
